Experiments:
Assay in all cases: KINOMEscan competition binding
Conditions in all cases: compound 10.0 µM
[1] = biological target: NEK7 (human) (UniProt Q8TDX7)
[2] = biological target: PRKAA2 (human) (UniProt P54646)
[3] = tested on: ABL1 (human), P00519 [F317L]
[4] = tested on: PIK3CA (human), P42336 [E545A]
[5] = biological target: IKBKE (human) (UniProt Q14164)
[6] = biological target: FES (human) (UniProt P07332)
[7] = biological target: PIM1 (human) (UniProt P11309)
[8] = biological target: EPHA6 (human) (UniProt Q9UF33)
[9] = biological target: CDK5 (human) (UniProt Q00535)
[10] = biological target: MAPK7 (human) (UniProt Q13164)
[11] = biological target: CAMK4 (human) (UniProt Q16566)
[12] = biological target: CLK2 (human) (UniProt P49760)
[13] = biological target: ANKK1 (human) (UniProt Q8NFD2)
[14] = biological target: NUAK2 (human) (UniProt Q9H093)
[15] = biological target: EPHA8 (human) (UniProt P29322)
[16] = biological target: MAPK15 (human) (UniProt Q8TD08)
[17] = biological target: NUAK1 (human) (UniProt O60285)
[18] = biological target: STK16 (human) (UniProt O75716)
[19] = tested on: KIT (human), P10721 [D816V]
[20] = biological target: RIPK1 (human) (UniProt Q13546)
[21] = biological target: EPHB2 (human) (UniProt P29323)
[22] = biological target: PRKACB (human) (UniProt P22694)
[23] = biological target: CSNK1G3 (human) (UniProt Q9Y6M4)
[24] = biological target: BMX (human) (UniProt P51813)
[25] = biological target: ACVRL1 (human) (UniProt P37023)
[26] = biological target: MAPK14 (human) (UniProt Q16539)
[27] = biological target: CSNK1D (human) (UniProt P48730)
[28] = biological target: MET (human) (UniProt P08581)
[29] = biological target: FRK (human) (UniProt P42685)
[30] = biological target: MYO3A (human) (UniProt Q8NEV4)
[31] = biological target: LYN (human) (UniProt P07948)
[32] = biological target: ABL2 (human) (UniProt P42684)
[33] = biological target: TBK1 (human) (UniProt Q9UHD2)
[34] = biological target: TAOK3 (human) (UniProt Q9H2K8)
[35] = biological target: EPHA5 (human) (UniProt P54756)
[36] = biological target: PAK6 (human) (UniProt Q9NQU5)
[37] = biological target: MAP3K7 (human) (UniProt O43318)
[38] = biological target: CDK2 (human) (UniProt P24941)
[39] = biological target: CHUK (human) (UniProt O15111)
[40] = tested on: PIK3CA (human), P42336 [Q546K]
[41] = biological target: AKT1 (human) (UniProt P31749)
[42] = biological target: MLTK (human) (UniProt Q9NYL2)

Chain of ABL2 (human) (P42684 whole entry, looked up): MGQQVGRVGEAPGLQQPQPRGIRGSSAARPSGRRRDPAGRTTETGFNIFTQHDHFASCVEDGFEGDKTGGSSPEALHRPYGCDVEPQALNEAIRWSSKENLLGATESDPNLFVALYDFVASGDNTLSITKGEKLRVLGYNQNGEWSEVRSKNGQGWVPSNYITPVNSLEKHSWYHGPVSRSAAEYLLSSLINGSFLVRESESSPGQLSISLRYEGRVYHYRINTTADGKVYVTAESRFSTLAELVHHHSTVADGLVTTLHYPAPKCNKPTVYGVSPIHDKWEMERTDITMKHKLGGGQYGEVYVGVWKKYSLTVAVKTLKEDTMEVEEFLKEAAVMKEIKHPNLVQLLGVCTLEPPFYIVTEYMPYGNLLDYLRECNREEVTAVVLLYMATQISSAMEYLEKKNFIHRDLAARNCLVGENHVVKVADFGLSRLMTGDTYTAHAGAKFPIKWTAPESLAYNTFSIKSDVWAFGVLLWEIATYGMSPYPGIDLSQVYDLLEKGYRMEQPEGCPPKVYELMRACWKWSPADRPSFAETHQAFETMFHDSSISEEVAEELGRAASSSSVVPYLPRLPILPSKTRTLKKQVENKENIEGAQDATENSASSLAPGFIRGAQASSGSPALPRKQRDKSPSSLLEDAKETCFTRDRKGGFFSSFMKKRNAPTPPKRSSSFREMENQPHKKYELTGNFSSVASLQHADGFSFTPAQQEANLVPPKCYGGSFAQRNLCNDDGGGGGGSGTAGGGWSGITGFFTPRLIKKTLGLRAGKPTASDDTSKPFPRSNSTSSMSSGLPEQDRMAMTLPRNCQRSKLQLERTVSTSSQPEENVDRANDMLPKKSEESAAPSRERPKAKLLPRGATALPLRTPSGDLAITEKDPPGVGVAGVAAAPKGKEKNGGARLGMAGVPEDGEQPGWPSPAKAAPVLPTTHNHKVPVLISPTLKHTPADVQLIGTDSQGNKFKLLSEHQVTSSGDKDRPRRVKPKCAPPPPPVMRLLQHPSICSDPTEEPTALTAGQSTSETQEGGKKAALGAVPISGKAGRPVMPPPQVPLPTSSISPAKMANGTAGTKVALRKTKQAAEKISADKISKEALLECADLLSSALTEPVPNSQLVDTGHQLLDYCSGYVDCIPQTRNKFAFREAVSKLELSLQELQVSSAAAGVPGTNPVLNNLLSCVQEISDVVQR
Chain of TAOK3 (human) (Q9H2K8 whole entry, looked up): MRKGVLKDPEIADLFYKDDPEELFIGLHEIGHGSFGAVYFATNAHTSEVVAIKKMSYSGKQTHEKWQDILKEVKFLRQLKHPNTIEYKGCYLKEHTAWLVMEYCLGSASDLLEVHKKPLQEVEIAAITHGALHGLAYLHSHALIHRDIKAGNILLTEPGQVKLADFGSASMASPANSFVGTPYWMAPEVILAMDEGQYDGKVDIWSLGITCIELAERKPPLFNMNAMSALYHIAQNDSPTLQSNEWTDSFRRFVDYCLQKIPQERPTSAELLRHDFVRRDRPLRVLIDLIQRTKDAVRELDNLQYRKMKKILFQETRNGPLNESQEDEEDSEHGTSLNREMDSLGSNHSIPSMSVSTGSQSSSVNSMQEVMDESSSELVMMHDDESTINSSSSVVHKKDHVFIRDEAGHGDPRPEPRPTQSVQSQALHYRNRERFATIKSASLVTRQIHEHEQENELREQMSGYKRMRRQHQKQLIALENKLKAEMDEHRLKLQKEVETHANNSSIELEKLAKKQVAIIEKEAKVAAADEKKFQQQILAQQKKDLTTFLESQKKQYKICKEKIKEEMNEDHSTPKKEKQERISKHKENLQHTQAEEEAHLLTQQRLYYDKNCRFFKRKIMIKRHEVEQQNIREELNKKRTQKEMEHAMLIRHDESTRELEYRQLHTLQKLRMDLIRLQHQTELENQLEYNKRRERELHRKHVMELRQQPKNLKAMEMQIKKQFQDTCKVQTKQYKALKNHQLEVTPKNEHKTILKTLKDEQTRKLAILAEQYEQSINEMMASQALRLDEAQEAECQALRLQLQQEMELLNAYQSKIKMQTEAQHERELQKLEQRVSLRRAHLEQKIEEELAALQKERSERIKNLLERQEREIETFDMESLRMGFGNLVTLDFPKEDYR
Chain of MET (human) (P08581 whole entry, looked up): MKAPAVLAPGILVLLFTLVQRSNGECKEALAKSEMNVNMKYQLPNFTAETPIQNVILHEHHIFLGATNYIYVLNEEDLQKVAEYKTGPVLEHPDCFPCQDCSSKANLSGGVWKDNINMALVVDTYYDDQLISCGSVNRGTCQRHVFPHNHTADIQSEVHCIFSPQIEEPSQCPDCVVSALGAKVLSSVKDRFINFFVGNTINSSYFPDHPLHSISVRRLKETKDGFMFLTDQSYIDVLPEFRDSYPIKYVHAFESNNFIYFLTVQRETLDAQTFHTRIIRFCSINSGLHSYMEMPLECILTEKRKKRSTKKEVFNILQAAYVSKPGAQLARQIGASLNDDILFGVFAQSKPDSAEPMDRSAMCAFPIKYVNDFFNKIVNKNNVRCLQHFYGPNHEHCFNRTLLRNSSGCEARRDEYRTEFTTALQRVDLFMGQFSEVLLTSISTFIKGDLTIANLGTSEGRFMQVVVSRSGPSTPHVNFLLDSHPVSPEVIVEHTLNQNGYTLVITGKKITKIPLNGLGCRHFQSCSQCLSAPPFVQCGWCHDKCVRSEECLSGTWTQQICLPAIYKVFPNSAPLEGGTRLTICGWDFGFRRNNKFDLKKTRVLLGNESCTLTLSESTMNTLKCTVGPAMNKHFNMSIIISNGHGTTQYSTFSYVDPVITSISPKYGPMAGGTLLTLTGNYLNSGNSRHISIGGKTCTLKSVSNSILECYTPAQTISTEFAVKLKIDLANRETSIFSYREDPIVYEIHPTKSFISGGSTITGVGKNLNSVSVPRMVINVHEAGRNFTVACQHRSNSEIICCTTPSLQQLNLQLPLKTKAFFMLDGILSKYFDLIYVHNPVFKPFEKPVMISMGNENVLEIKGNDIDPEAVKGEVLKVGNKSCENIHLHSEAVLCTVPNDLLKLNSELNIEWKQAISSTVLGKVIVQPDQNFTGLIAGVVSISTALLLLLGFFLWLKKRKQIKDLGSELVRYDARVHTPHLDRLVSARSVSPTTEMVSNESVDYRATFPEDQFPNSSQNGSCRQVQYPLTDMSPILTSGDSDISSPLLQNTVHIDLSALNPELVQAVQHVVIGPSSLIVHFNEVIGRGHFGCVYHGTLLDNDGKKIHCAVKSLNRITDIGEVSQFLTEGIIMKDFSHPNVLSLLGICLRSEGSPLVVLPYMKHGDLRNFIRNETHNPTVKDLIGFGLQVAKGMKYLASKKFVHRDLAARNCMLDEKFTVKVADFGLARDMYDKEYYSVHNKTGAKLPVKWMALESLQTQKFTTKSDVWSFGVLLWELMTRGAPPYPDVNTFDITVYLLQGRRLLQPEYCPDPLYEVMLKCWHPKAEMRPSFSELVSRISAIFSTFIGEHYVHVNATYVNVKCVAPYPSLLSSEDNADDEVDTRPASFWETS
Chain of AKT1 (human) (P31749 whole entry, looked up): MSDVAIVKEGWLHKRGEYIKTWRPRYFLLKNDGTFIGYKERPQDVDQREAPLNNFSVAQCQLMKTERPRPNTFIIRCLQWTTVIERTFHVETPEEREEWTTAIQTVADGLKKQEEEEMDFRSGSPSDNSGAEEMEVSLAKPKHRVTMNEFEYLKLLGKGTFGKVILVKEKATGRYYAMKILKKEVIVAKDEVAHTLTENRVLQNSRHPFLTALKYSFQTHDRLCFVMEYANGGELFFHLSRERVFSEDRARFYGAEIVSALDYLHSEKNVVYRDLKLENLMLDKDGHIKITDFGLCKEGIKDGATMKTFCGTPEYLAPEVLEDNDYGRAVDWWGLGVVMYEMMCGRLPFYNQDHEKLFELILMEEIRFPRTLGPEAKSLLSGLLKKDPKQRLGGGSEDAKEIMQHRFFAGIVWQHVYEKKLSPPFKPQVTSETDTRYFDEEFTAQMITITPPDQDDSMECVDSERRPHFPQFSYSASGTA
Chain of CSNK1G3 (human) (Q9Y6M4 whole entry, looked up): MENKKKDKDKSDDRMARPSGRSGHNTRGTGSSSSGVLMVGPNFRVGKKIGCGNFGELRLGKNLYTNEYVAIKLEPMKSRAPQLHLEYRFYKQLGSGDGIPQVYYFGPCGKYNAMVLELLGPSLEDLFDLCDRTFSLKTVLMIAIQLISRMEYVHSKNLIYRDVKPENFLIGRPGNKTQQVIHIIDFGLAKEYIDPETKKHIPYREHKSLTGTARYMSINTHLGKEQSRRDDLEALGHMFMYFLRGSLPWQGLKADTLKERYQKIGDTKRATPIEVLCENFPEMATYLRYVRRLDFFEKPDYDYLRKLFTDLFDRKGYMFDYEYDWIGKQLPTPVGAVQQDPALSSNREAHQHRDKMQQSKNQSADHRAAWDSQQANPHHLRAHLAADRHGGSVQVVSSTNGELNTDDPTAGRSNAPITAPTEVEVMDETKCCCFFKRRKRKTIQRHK
Chain of NUAK2 (human) (Q9H093 whole entry, looked up): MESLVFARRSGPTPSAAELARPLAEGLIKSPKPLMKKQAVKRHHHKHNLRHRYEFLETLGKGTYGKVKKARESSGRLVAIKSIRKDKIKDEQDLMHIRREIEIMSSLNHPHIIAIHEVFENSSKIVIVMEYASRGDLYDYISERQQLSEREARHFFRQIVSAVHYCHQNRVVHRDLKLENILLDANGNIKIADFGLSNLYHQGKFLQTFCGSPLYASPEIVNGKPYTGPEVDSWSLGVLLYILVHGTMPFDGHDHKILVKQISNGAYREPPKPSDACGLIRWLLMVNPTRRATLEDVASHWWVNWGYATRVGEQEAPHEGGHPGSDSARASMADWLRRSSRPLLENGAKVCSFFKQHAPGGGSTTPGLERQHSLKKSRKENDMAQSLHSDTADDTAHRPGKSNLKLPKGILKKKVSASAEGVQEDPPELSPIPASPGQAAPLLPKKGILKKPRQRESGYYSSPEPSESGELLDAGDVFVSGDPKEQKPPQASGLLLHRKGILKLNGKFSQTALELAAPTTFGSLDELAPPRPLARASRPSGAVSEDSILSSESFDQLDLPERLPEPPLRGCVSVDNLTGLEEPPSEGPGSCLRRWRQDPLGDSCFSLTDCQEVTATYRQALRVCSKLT

`Cc1cnc(-c2cnc(NCCNc3ccc(C#N)cn3)nc2-c2ccc(Cl)cc2Cl)[nH]1` was tested, and the kinase still bound, per cent of control [1] was 98%, the kinase still bound, per cent of control [2] was 56% and the kinase still bound, per cent of control [3] was 100%. It also gave a kinase still bound, per cent of control [4] of 100%, a kinase still bound, per cent of control [5] of 98% and a kinase still bound, per cent of control [6] of 100%. It also gave a kinase still bound, per cent of control [7] of 94%, a kinase still bound, per cent of control [8] of 100% and a kinase still bound, per cent of control [9] of 67%. For the same compound, the kinase still bound, per cent of control [10] was 100%, the kinase still bound, per cent of control [11] was 100% and the kinase still bound, per cent of control [12] was 40%. For the same compound, the kinase still bound, per cent of control [13] was 100%, the kinase still bound, per cent of control [14] was 94% and the kinase still bound, per cent of control [15] was 100%. It also gave a kinase still bound, per cent of control [16] of 68%, a kinase still bound, per cent of control [17] of 100% and a kinase still bound, per cent of control [18] of 91%. The kinase still bound, per cent of control [19] was 100%, the kinase still bound, per cent of control [20] was 100% and the kinase still bound, per cent of control [21] was 100%. It also gave a kinase still bound, per cent of control [22] of 100%, a kinase still bound, per cent of control [23] of 56% and a kinase still bound, per cent of control [24] of 100%. For the same compound, the kinase still bound, per cent of control [25] was 100%, the kinase still bound, per cent of control [26] was 98% and the kinase still bound, per cent of control [27] was 81%. The kinase still bound, per cent of control [28] was 96%, the kinase still bound, per cent of control [29] was 100% and the kinase still bound, per cent of control [30] was 100%. The kinase still bound, per cent of control [31] was 100%, the kinase still bound, per cent of control [32] was 100% and the kinase still bound, per cent of control [33] was 96%. It also gave a kinase still bound, per cent of control [34] of 13%, a kinase still bound, per cent of control [35] of 100% and a kinase still bound, per cent of control [36] of 100%. For the same compound, the kinase still bound, per cent of control [37] was 51%, the kinase still bound, per cent of control [38] was 54% and the kinase still bound, per cent of control [39] was 100%. For the same compound, the kinase still bound, per cent of control [40] was 100% and the kinase still bound, per cent of control [41] was 100%.
`COc1ccc(CNC(=O)Nc2ncc([N+](=O)[O-])s2)cc1` showed a kinase still bound, per cent of control [1] of 100%, a kinase still bound, per cent of control [2] of 96% and a kinase still bound, per cent of control [3] of 100%. For the same compound, the kinase still bound, per cent of control [4] was 94%, the kinase still bound, per cent of control [5] was 88% and the kinase still bound, per cent of control [6] was 99%. For the same compound, the kinase still bound, per cent of control [7] was 75%, the kinase still bound, per cent of control [8] was 100% and the kinase still bound, per cent of control [9] was 72%. It also gave a kinase still bound, per cent of control [10] of 97%, a kinase still bound, per cent of control [12] of 73% and a kinase still bound, per cent of control [13] of 100%. For the same compound, the kinase still bound, per cent of control [14] was 93%, the kinase still bound, per cent of control [15] was 100% and the kinase still bound, per cent of control [16] was 51%. For the same compound, the kinase still bound, per cent of control [17] was 100%, the kinase still bound, per cent of control [18] was 28% and the kinase still bound, per cent of control [19] was 100%. It also gave a kinase still bound, per cent of control [20] of 100%, a kinase still bound, per cent of control [21] of 15% and a kinase still bound, per cent of control [22] of 98%. It also gave a kinase still bound, per cent of control [23] of 59%, a kinase still bound, per cent of control [24] of 100% and a kinase still bound, per cent of control [25] of 97%. It also gave a kinase still bound, per cent of control [26] of 100%, a kinase still bound, per cent of control [28] of 92% and a kinase still bound, per cent of control [29] of 98%. It also gave a kinase still bound, per cent of control [30] of 100%, a kinase still bound, per cent of control [31] of 74% and a kinase still bound, per cent of control [32] of 89%. For the same compound, the kinase still bound, per cent of control [33] was 100%, the kinase still bound, per cent of control [34] was 54% and the kinase still bound, per cent of control [35] was 100%. For the same compound, the kinase still bound, per cent of control [42] was 100%, the kinase still bound, per cent of control [36] was 100% and the kinase still bound, per cent of control [37] was 88%. For the same compound, the kinase still bound, per cent of control [38] was 74%, the kinase still bound, per cent of control [39] was 100% and the kinase still bound, per cent of control [40] was 90%. For the same compound, the kinase still bound, per cent of control [41] was 86%.

— the kinase profiling compilation of Christmann-Franck et al. (2016)
